We go through one compound from US20130084379A1, “ACTIVE INGREDIENT DELIVERY SYSTEM” (FIRMENICH SA, priority 2010, published 2013).

The data set can be described thus: Dissolution kinetics in a model beverage base (Distek 2100B USP 2 dissolution system, UV/VIS probe at 324 nm). The data set is classed as physicochemical. The conditions noted are these: 200 rpm, 20 ppm nominal. As for the experimental part: The dissolution kinetics of the powder prepared in example 1 was compared to that of Compound 1 alone. Evaluation was performed under standard conditions using a Distek 2100B USP 2 dissolution system and a model beverage base.
The model beverage was prepared by stirring together 35 g sucrose, 1.5 g citric acid and 965.3 g deionised water until the sucrose was fully dissolved. Comparative sample 1 was prepared by adding 20 mg of Compound 1 (unencapsulated) to 1 litre of the beverage base to provide 20 ppm of compound 1. Sample 2 was prepared by adding 200 mg of the powder prepared in example 1 to 1 litre of the beverage to provide, once dissolved, a solution containing 20 ppm of compound 1. The samples were each stirred at 200 rpm and the concentration of compound 1 in solution was monitored as a function of time using a UV/VIS spectrometer probe (measuring absorbance at 324 nm). The results are given in the following table (where the values represent the amount (ppm) of Compound 1 in solution: […]

Regarding `CCCNC(=O)C(C)(C)COc1cccc2c1C(N)=NS(=O)(=O)N2` [Sample 1], the “time at which 50% dissolution of Compound 1 was achieved” value is reported as “approximately 3600 seconds”. For the same compound, for the setting “time 0 seconds”, the “Concentration in Solution (amount of Compound 1 in solution)” value (from here on “Concentration in Solution”) is recorded as 0 ppm. The “Concentration in Solution” value (time 10 seconds) worked out at 0.1 ppm. Besides, the “Concentration in Solution” value (time 30 seconds) came out at 0.2 ppm. Besides, the “Concentration in Solution” value (time 60 seconds) came to 0.3 ppm. Also, under “time 300 seconds”, the “Concentration in Solution” value amounted to 0.6 ppm. Besides, where the note is “time 600 seconds”, the “Concentration in Solution” value was found to be 1.4 ppm. Where the note is “time 3600 seconds”, the “Concentration in Solution” value is 10.2 ppm.
